Data published in publication PMC11822212, “High-throughput screening identifies Aurora kinase B as a critical therapeutic target for Merkel cell carcinoma” (Nature Communications, 2025).

What was measured:
[1] = test system: MCC13 cells (VN-MCC); assay: qHTS cell viability (CellTiter-Glo, 72 h; primary and follow-up small molecule screen); type: cell-based, human
[2] = test system: HEK293T cells; assay: qHTS cell viability (CellTiter-Glo, 72 h; primary screen), control cell line; type: cell-based, human
[3] = test system: UISO cells (VN-MCC); assay: qHTS cell viability (CellTiter-Glo, 72 h; primary and follow-up small molecule screen); type: cell-based, human
[4] = test system: WAGA cells (VP-MCC); assay: as above; type: cell-based, human
[5] = test system: MCC cell lines (WAGA, MKL-1, MKL-2, MCC13, MCC26, UISO); assay: qHTS cell viability, all six MCC cell lines as a group (mean AUC, MCC.avg); type: cell-based, human
[6] = test system: MCC26 cells (VN-MCC); assay: qHTS cell viability (CellTiter-Glo, 72 h; primary and follow-up small molecule screen); type: cell-based, human
[7] = test system: CRL-7250 cells; assay: qHTS cell viability (CellTiter-Glo, 72 h; primary screen), control cell line; type: cell-based
[8] = test system: MKL-2 cells (VP-MCC); assay: qHTS cell viability (CellTiter-Glo, 72 h; primary and follow-up small molecule screen); type: cell-based, human
[9] = test system: VN-MCC cell lines (MCC13, MCC26, UISO); assay: qHTS cell viability, VN-MCC cell lines as a group (mean AUC, VN.MCC.avg); type: cell-based, human; settings: for VN-MCC_Avg_AUC: mean AUC of VN-MCC cell lines
[10] = test system: HACAT cells; assay: qHTS cell viability (CellTiter-Glo, 72 h; primary screen), control cell line; type: cell-based, human
[11] = test system: NIH-3T3 cells; assay: as above; type: cell-based, mouse
[12] = test system: MKL-1 cells (VP-MCC); assay: qHTS cell viability (CellTiter-Glo, 72 h; primary and follow-up small molecule screen); type: cell-based, human
[13] = test system: VP-MCC cell lines (WAGA, MKL-1, MKL-2); assay: qHTS cell viability, VP-MCC cell lines as a group (mean AUC, VP.MCC.avg); type: cell-based, human; settings: for VP-MCC_Avg_AUC: mean AUC of VP-MCC cell lines
[14] = test system: six MCC cell lines and four control cell lines; assay: qHTS cell viability, all 10 cell lines screened; type: cell-based
[15] = test system: control cell lines (HACAT, HEK293T, CRL-7250, NIH-3T3); assay: qHTS cell viability, control cell lines as a group (mean AUC, Control.avg); type: cell-based; settings: mean AUC of control cell lines
[16] = MIPE library, 11-point DRC, sheet S2E
[17] = MIPE library, 11-point DRC, control cell line, sheet S2E
[18] = MIPE library, mean AUC of six MCC cell lines, sheet S2E
[19] = MIPE library, Control AUC minus VN-MCC AUC (therapeutic window), sheet S2E
[20] = MIPE library, Control AUC minus VP-MCC AUC (therapeutic window), sheet S2E
[21] = MIPE library, Control AUC minus MCC AUC (therapeutic window), sheet S2E

For C=C1/C(=C\C=C2/CCC[C@]3(C)[C@@H]([C@H](C)/C=C/[C@H](C)C(C)C)CC[C@@H]23)C[C@@H](O)C[C@@H]1O [1-alpha-Hydroxyergocalciferol], which MCC13_AUC [1, 16] is on record?
Its MCC13_AUC is 466.906.

And the HEK293T_AUC [2, 17]?
Its HEK293T_AUC is 473.524.

What about the UISO_AUC [3, 16] of the same compound?
Its UISO_AUC is 386.134.

And the WAGA_AUC [4, 16]?
Its WAGA_AUC is 235.191.

What about the MCC_Avg_AUC [5, 18] of the same compound?
Its MCC_Avg_AUC is 361.046.

And the MCC26_AUC [6, 16]?
The MCC26_AUC was 429.194.

And the CRL7250_AUC [7, 17]?
Its CRL7250_AUC is 418.5.

What about the MKL2_AUC [8, 16] of the same compound?
The MKL2_AUC was 310.498.

And the Control-VN-MCC [9, 19]?
Its Control-VN-MCC is 0.7959.

And the VN-MCC_Avg_AUC ([9]; MIPE library, sheet S2E)?
Its VN-MCC_Avg_AUC is 427.411.

And the HACAT_AUC [10, 17]?
The HACAT_AUC was 470.948.

And the NIH3T3_AUC [11, 17]?
The NIH3T3_AUC was 349.858.

And the MKL1_AUC [12, 16]?
The MKL1_AUC was 338.352.

And the Control-VP-MCC [13, 20]?
Its Control-VP-MCC is 133.527.

And the VP-MCC_Avg_AUC ([13]; MIPE library, sheet S2E)?
Its VP-MCC_Avg_AUC is 294.68.

And the Control-MCC [14, 21]?
Its Control-MCC is 67.1615.

And the Control_Avg_AUC ([15]; MIPE library, sheet S2E)?
Its Control_Avg_AUC is 428.207.

What does the source list for CCCCCCCCOc1ccccc1C(=O)Nc1ccc(C(=O)OCC[N+](C)(CC)CC)cc1 [Octylonium bromide]?
MCC13_AUC ([1]; NPC library, qHTS dose-response AUC, MCC13): 437.863; HEK293T_AUC ([2]; NPC library, qHTS dose-response AUC, HEK293T control): 439.212; HEK293T_AUC ([2]; NPC library; qHTS dose-response AUC, HEK293T control): 439.213; UISO_AUC ([3]; NPC library, qHTS dose-response AUC, UISO): 389.713; WAGA_AUC ([4]; NPC library, qHTS dose-response AUC, WAGA): 419.958; MCC_Avg_AUC ([5]; NPC library, mean AUC of all 6 MCC cell lines): 399.88; MCC_Avg_AUC ([5]; NPC library, mean AUC of six MCC cell lines): 399.88; MCC26_AUC ([6]; NPC library, qHTS dose-response AUC, MCC26): 427.666; CRL7250_AUC ([7]; NPC library, qHTS dose-response AUC, CRL7250 control): 483.471; MKL2_AUC ([8]; NPC library, qHTS dose-response AUC, MKL2): 359.851; Control-VN-MCC ([9]; Control AUC minus VN-MCC AUC): 46.4688; VN-MCC_Avg_AUC ([9]; NPC library): 418.414; Control-VN-MCC ([9]; NPC library, therapeutic window: Control avg AUC minus VN-MCC avg AUC): 46.4688; HACAT_AUC ([10]; NPC library, qHTS dose-response AUC, HACAT control): 466.719; NIH3T3_AUC ([11]; NPC library, qHTS dose-response AUC, NIH3T3 control): 470.129; MKL1_AUC ([12]; NPC library, qHTS dose-response AUC, MKL1): 364.23; Control-VP-MCC ([13]; Control AUC minus VP-MCC AUC): 83.5367; VP-MCC_Avg_AUC ([13]; NPC library): 381.346; Control-VP-MCC ([13]; NPC library, therapeutic window: Control avg AUC minus VP-MCC avg AUC): 83.5367; Control-MCC ([14]; NPC library, therapeutic window: Control avg AUC minus MCC avg AUC): 65.0028; Control_Avg_AUC ([15]; NPC library): 464.883

Which results are given for CN[C@@H]1[C@H](O)[C@H](NC)[C@H]2O[C@@]3(O)C(=O)C[C@@H](C)O[C@H]3O[C@@H]2[C@H]1O.Cl.Cl [Spectinomycin dihydrochloride]?
MCC13_AUC [1, 16]: 461.506; MCC13_AUC ([1]; area under the dose-response curve, MCC13 cells, AUC<450 = reduced viability): 467.588; HEK293T_AUC [2, 17]: 472.116; HEK293T_AUC ([2]; area under the dose-response curve, HEK293T control cells; AUC<450 = reduced viability): 456.43; UISO_AUC [3, 16]: 392.644; UISO_AUC ([3]; area under the dose-response curve, UISO cells, AUC<450 = reduced viability): 477.843; WAGA_AUC [4, 16]: 274.54; WAGA_AUC ([4]; area under the dose-response curve, WAGA cells, AUC<450 = reduced viability): 400.83; MCC_Avg_AUC [5, 18]: 362.621; MCC26_AUC [6, 16]: 481.076; MCC26_AUC ([6]; area under the dose-response curve, MCC26 cells, AUC<450 = reduced viability): 511.183; CRL7250_AUC [7, 17]: 477.882; CRL7250_AUC ([7]; area under the dose-response curve, CRL7250 control cells, AUC<450 = reduced viability): 453.169; MKL2_AUC [8, 16]: 323.757; MKL2_AUC ([8]; area under the dose-response curve, MKL-2 cells, AUC<450 = reduced viability): 429.069; Control-VN-MCC [9, 19]: 27.501; VN-MCC_Avg_AUC ([9]; MIPE library, sheet S2E): 445.075; HACAT_AUC [10, 17]: 460.149; HACAT_AUC ([10]; area under the dose-response curve, HACAT control cells, AUC<450 = reduced viability): 475.545; NIH3T3_AUC [11, 17]: 480.157; NIH3T3_AUC ([11]; area under the dose-response curve, NIH3T3 control cells, AUC<450 = reduced viability): 486.283; MKL1_AUC [12, 16]: 242.204; MKL1_AUC ([12]; area under the dose-response curve, MKL-1 cells, AUC<450 = reduced viability): 379.185; Control-VP-MCC [13, 20]: 192.409; VP-MCC_Avg_AUC ([13]; MIPE library, sheet S2E): 280.167; Control-MCC [14, 21]: 109.955; Control_Avg_AUC ([15]; MIPE library, sheet S2E): 472.576
